Data as given in ChEMBL document CHEMBL1201862, “PubChem BioAssay data set” (2004).
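Following 48 hours of exposure in 96-well plates, responses at five concentrations were used to interpolate endpoints linearly. GI50 marks 50% less growth.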 Activity calls are given as the source filed them. No stated cut-off is given here; in the data, active = GI50 up to about 1.1 µM and inactive = higher.

Experiments:
Test in all cases: growth of human tumour cells (NCI), 48 h
ACHN = tested on: ACHN
DLD-1 = tested on: DLD-1
EKVX = tested on: EKVX
HCT-116 = tested on: HCT-116
HT-29 = tested on: HT-29
IGROV-1 = tested on: IGROV-1
M14 = tested on: M14
OVCAR-4 = tested on: OVCAR-4
SK-MEL-5 = tested on: SK-MEL-5
SK-OV-3 = tested on: SK-OV-3
SR = tested on: SR
U-251 = tested on: U-251
UACC-62 = tested on: UACC-62
DU-145 = tested on: DU-145
HCC 2998 = tested on: HCC 2998
LOX IMVI = tested on: LOX IMVI
MDA-N = tested on: MDA-N
NCI/ADR-RES = tested on: NCI/ADR-RES
PC-3 = tested on: PC-3
T47D = tested on: T47D

Measured: GI50

COc1ccc([C@H]2CC(=O)NCCCCN2)cc1
inactive: ACHN > 100 µM | DLD-1 > 100 µM | EKVX > 100 µM | HCT-116 > 100 µM | HT-29 > 100 µM | IGROV-1 > 100 µM | M14 > 100 µM | OVCAR-4 > 100 µM | SK-MEL-5 > 100 µM | SK-OV-3 > 100 µM | SR > 100 µM | U-251 > 100 µM | UACC-62 > 100 µM

COc1cc2c(cc1OC)C(=O)N(NC1=NCCN1)C2=O
inactive: ACHN > 100 µM | DU-145 > 100 µM | EKVX > 100 µM | HCC 2998 > 100 µM | HCT-116 > 100 µM | HT-29 > 100 µM | IGROV-1 > 100 µM | LOX IMVI > 100 µM | M14 > 100 µM | MDA-N > 100 µM | NCI/ADR-RES > 100 µM | OVCAR-4 > 100 µM | PC-3 > 100 µM | SK-MEL-5 > 100 µM | SK-OV-3 > 100 µM | SR 63 µM | T47D > 100 µM | U-251 > 100 µM | UACC-62 > 100 µM

CC(C)[C@H]1CO[C@@H]2O[C@H](C)CC(=O)N21
inactive: ACHN > 100 µM | DLD-1 > 100 µM | EKVX > 100 µM | HCT-116 > 100 µM | HT-29 > 100 µM | IGROV-1 > 100 µM | M14 > 100 µM | OVCAR-4 > 100 µM | SK-MEL-5 > 100 µM | SK-OV-3 > 100 µM | SR > 100 µM | U-251 > 100 µM | UACC-62 > 100 µM

Cc1ccc(/N=N/c2ccc(N(CCC#N)CCC#N)cc2C)c(Br)c1
inactive: ACHN 15 µM | DLD-1 13.7 µM | EKVX 41 µM | HCC 2998 5.28 µM | HT-29 3.53 µM | IGROV-1 37.4 µM | LOX IMVI 3.33 µM | M14 20.5 µM | OVCAR-4 20.4 µM | SK-MEL-5 16.3 µM | SK-OV-3 10.3 µM | U-251 19.1 µM | UACC-62 13.5 µM

OC1(CCc2ccccc2)COC(C(F)(F)F)(C(F)(F)F)C1 (stereo unspecified)
inactive: ACHN > 100 µM | DU-145 > 100 µM | EKVX > 100 µM | HCC 2998 > 100 µM | HCT-116 > 100 µM | HT-29 > 100 µM | IGROV-1 > 100 µM | LOX IMVI > 100 µM | M14 > 100 µM | MDA-N > 100 µM | NCI/ADR-RES > 100 µM | OVCAR-4 > 100 µM | PC-3 > 100 µM | SK-MEL-5 > 100 µM | SK-OV-3 > 100 µM | SR > 100 µM | T47D > 100 µM | U-251 > 100 µM | UACC-62 > 100 µM

COc1ccc(CCc2ccc(O)c(C(=O)O)c2)cc1OC
inactive: ACHN > 100 µM | DU-145 > 100 µM | EKVX > 100 µM | HCC 2998 > 100 µM | HCT-116 65.5 µM | HT-29 > 100 µM | IGROV-1 > 100 µM | LOX IMVI 7.5 µM | M14 > 100 µM | MDA-N > 100 µM | NCI/ADR-RES > 100 µM | OVCAR-4 > 100 µM | PC-3 > 100 µM | SK-MEL-5 98.9 µM | SK-OV-3 > 100 µM | SR > 100 µM | T47D > 100 µM | U-251 > 100 µM | UACC-62 > 100 µM

Cc1ccc(/C=N/Nc2ccccn2)s1
inactive: ACHN > 100 µM | DU-145 > 100 µM | EKVX > 72.8 µM | HCC 2998 > 100 µM | HCT-116 > 44.7 µM | HT-29 > 67.8 µM | IGROV-1 > 100 µM | LOX IMVI > 50.4 µM | M14 > 100 µM | MDA-N > 54 µM | NCI/ADR-RES > 40.6 µM | OVCAR-4 > 100 µM | PC-3 > 100 µM | SK-MEL-5 > 100 µM | SK-OV-3 > 100 µM | SR > 100 µM | T47D > 57 µM | U-251 > 100 µM | UACC-62 > 100 µM

NC(=O)N/N=C(\CC1OC(=O)c2ccccc21)c1ccco1 (stereo unspecified)
inactive: ACHN > 100 µM | DLD-1 > 100 µM | EKVX > 100 µM | HCC 2998 > 100 µM | HCT-116 > 100 µM | HT-29 > 100 µM | IGROV-1 > 100 µM | LOX IMVI > 100 µM | M14 > 100 µM | OVCAR-4 > 100 µM | SK-MEL-5 > 100 µM | SK-OV-3 > 100 µM | UACC-62 > 100 µM

Cc1ccc(NC(=O)CCC(CC(=O)C(C)(C)C)=NNC(=O)C(=O)NN)cc1C
inactive: ACHN > 100 µM | DLD-1 > 100 µM | EKVX > 100 µM | HCC 2998 > 100 µM | HT-29 > 100 µM | IGROV-1 > 100 µM | LOX IMVI > 100 µM | M14 > 100 µM | OVCAR-4 > 100 µM | SK-MEL-5 > 100 µM | SK-OV-3 > 100 µM | UACC-62 > 100 µM

O=C(/C=C/c1ccc(Cl)c(Cl)c1)c1cccc2ccccc12
inactive: ACHN 16.4 µM | DLD-1 2.49 µM | EKVX 18.4 µM | HCC 2998 10.4 µM | HCT-116 3.23 µM | HT-29 3.59 µM | IGROV-1 11.7 µM | M14 17.1 µM | OVCAR-4 7.64 µM | SK-MEL-5 19.1 µM | SK-OV-3 20.3 µM | U-251 2.74 µM | UACC-62 12.9 µM

CSC1(SC)N2Cc3ccccc3N=C2C1(c1ccccc1)c1ccccc1
inactive: ACHN 14.1 µM | DU-145 19.5 µM | EKVX 6.67 µM | HCC 2998 2.6 µM | HCT-116 6.18 µM | HT-29 11.6 µM | IGROV-1 24.2 µM | LOX IMVI 12.3 µM | M14 12.2 µM | MDA-N 12.5 µM | NCI/ADR-RES 16.4 µM | OVCAR-4 10.1 µM | PC-3 12 µM | SK-MEL-5 11.4 µM | SK-OV-3 > 54.5 µM | SR 1.95 µM | T47D 4.51 µM | U-251 15.1 µM | UACC-62 12.6 µM

COc1ccc(/C=C/C(=O)c2sc(N)nc2C)cc1
inactive: DLD-1 > 100 µM | EKVX > 100 µM | HCC 2998 > 100 µM | HT-29 > 100 µM | IGROV-1 > 100 µM | LOX IMVI > 100 µM | SK-MEL-5 > 100 µM | SK-OV-3 > 100 µM | U-251 > 100 µM | UACC-62 > 100 µM

CCCCCCCCCCCCn1[nH]c(C)c(C(=S)SCCCCCCCC)c1=O
inactive: ACHN 37.6 µM | DLD-1 19.6 µM | EKVX 43.9 µM | HCC 2998 > 96.6 µM | HCT-116 29.6 µM | HT-29 76.2 µM | IGROV-1 > 91.6 µM | LOX IMVI 48.8 µM | M14 56.1 µM | OVCAR-4 95.5 µM | SK-MEL-5 49 µM | SK-OV-3 > 93.1 µM | U-251 45 µM | UACC-62 21.1 µM
